Measured values from patent publication EP4813463A2, “TYK2 INHIBITORS AND COMPOSITIONS AND METHODS THEREOF” (Lynk Pharmaceuticals Co. Ltd., priority 2023, dated 2024).

Legend:
[1] = Pharmacokinetic study in mice; type: in vivo; conditions: mouse, plasma, solution
Method: (§1) Pharmacokinetic profiles of test articles were evaluated in fasted mouse, Sprague-Dawley rats and Beagle dogs. After dosing, blood samples were collected at each time point. For IV injection group, time points were set at 5, 15, 30 min, and then 1, 2, 4, 8 and 24 hours after dosing. For oral gavage group,#time points were set at 15, 30 min, and then 1, 2, 4, 8, and 24 hours. Blood was collected into appropriately labeled tubes containing K2EDTA as the anticoagulant. Plasma was obtained within 1 hours of blood collection by centrifugation at 8000×g and 4 °C for 6 minutes, and then stored at -20 °C until analyzed by LC/MS/MS for quantification. PK parameter values, including, but not necessarily limited to, the maximum plasma concentrations (Cmax), the time to reach the maximum concentrations (Tmax), and the area under the plasma concentration vs. time curve (AUC) from time zero to 24-hour (AUC0-24h) were determined using WinNonlin program. Table 17. Pharmacokinetic Parameters in Beagle dogs by Intravenous Administration

[2] = Pharmacokinetic study in dogs; type: in vivo; conditions: dog, plasma; Beagle dogs, intravenous, 2 mg/kg, solution
Method: as §1

[3] = system: T cell transfer colitis model; test: SCID mice colitis by T cell transfer pharmacodynamics study; type: in vivo, C.B17-SCID mice
Method: This study aimed to obtain the pharmacodynamics of the test article in T cell transfer colitis model after oral administration. For induction of colitis, naive CD4^+ T cells (CD4^+CD44^lowCD62L^high) were adoptively transferred from MHC-compatible Balb/c mice to C.B17-SCID recipients. Balb/c splenocytes were […] selected for CD4^+ T cells using the Mouse Naïve CD4^+ T Cell Isolation Kit (Cat #19765, […]), 1.5×10^6 cells in a volume of 100 µL PBS were transferred to each recipient by i.v. injection on Day 0. C.B17-SCID mice obtained from the Beijing Vital River Laboratory Animal Technology Co., Ltd. Starting on Day 0 and continuing daily through Day 32, mice (n = 8 per group) were dosed with 0 (vehicle control), 45 mg/kg PO BID compound 7A in a vehicle containing 5% DMSO, 65% PEG400, and 30% DDH2O (v/v/v).
Each mouse was scored three times weekly for pathological features, including stool consistency, and body weight loss. Individual scores were combined to generate the DAI, the maximum score was 6. At the termination of the study, the colon was collected for measuring colon index (weight, length, and density), emptied of fecal contents opened longitudinally along the mesenteric border, and formed a Swiss-Roll from the proximal to the distal end, processed to paraffin-embedded blocks to generate 5-µm-thick sections for hematoxylin and eosin (H&E) staining. Slices were evaluated in a blinded manner and histological scores were assessed based on the following parameters: inflammation, epithelial defects, crypt atrophy, dysplasia, and the area affected by dysplasia.

[4] = system: Anti-CD40-induced colitis; test: SCID mice colitis by anti-CD40-driven pharmacodynamics study; type: in vivo, C.B17-SCID mice; conditions: for Colon density / Colon length (cm) / Colon weight: Day 5, mean ± SEM, n = 10
Method: This study aimed to obtain the pharmacodynamics of the test article in colitis model by Anti-CD40-driven after oral administration. C.B17-SCID mice obtained from the Zhejiang Vital River Laboratory Animal Technology Co., Ltd. Starting on Day -1 and continuing daily through Day 4, mice (n = 10 per group) were dosed with 0 (vehicle control), 15, 45, or 100 mg/kg PO BID compound 7A in vehicle containing 5% DMSO, 65% PEG400, and 30% DDH2O (v/v/v). In addition, on Day 0, 30 minutes after administration, colitis was induced with a single intraperitoneal injection of 200 µL of anti-CD40 mAb (BE0016-2, BioXcell) in DPBS, the Sham group mice were intraperitoneally injected with 200 µL of DPBS.
Each mouse was scored daily for pathological features, including stool consistency, presence of blood stool, and body weight loss. Individual scores were combined to generate the Disease Activity Index (DAI) which was calculated daily for each mouse, the maximum score was 12. On Day 5, all animals were euthanized, colon was collected for measuring colon index (weight, length, and density).

[5] = 45mpk PO BID, Day 0 through Day 32, mean ± SEM, n = 8

With `[2H]C([2H])([2H])NC(=O)c1cnc(NC(=O)C2CC2)cc1Nc1nn(C)c2ccc([C@H](OC([2H])([2H])[2H])C(F)(F)F)c(OC)c12` [Example 55A, (S)-6-(cyclopropanecarboxamido)-4-((4-methoxy-1-methyl-5-(2,2,2-trifluoro-1-(methoxy-d3)ethyl)-1H-indazol-3-yl)amino)-N-(methyl-d3)nicotinamide] the AUC ([1]; intravenous, 3 mg/kg) was 7600 ng·h/mL, the Vd ([1]; intravenous, 3 mg/kg) was 0.819 L/kg and the clearance ([1]; intravenous, 3 mg/kg) was 6.57 mL/min/kg. It also gave a half-life ([1]; intravenous, 3 mg/kg) of 154 min, an AUC ([1]; oral, 5 mg/kg) of 7490 ng·h/mL and a Cmax ([1]; oral, 5 mg/kg) of 2300 ng/mL. The bioavailability ([1]; oral, 5 mg/kg) was 59.2%, the half-life ([1]; oral, 5 mg/kg) was 143 min and the AUC [2] was 9980 ng·h/mL. For the same molecule, the Vd [2] was 0.678 L/kg, the clearance [2] was 3.52 mL/min/kg and the half-life [2] was 218 min.

In the case of `[2H]C([2H])([2H])NC(=O)c1cnc(NC(=O)C2CC2)cc1Nc1cnn2ccc([C@H](O)C(F)(F)F)c(OC)c12` [Example 7A, (S)-6-(cyclopropanecarboxamido)-4-((4-methoxy-5-(2,2,2-trifluoro-1-hydroxyethyl)pyrazolo[1,5-a]pyridin-3-yl)amino)-N-(methyl-d3)nicotinamide], the “Colon density” value [3, 5] is reported as 27.66 ± 1.24 mg/cm, the “Colon length (cm)” value [3, 5] is reported as 7.94±0.32 cm and the “Colon weight” value [3, 5] is reported as 218.38 ± 10.13 mg. For the same molecule, the “Spleen index” value [3, 5] was 3.08 ± 0.36 mg/g, the disease-related weight loss ([3]; FIG. 2. A, result in words) was “inhibiting” and the DAI scores ([3]; FIG. 2. B, result in words) was “inhibiting”. The “absolute value of Th1 and Th17 cells” value ([3]; FIG. 3. B-C, result in words) was “significantly reduced”, the “percentage value of CD4^+T cells and Th17 cells in whole blood” value ([3]; FIG. 3. D-E, result in words) was “significantly reduced” and the “CD4^+T cells in colonic tissue” value ([3]; FIG. 4. A, result in words) was “significantly reduced”. For the same molecule, the colonic histopathological changes ([3]; FIG. 4. B, result in words) was “inhibiting”, the colitis symptoms ([3]; orally twice daily, result in words) was “alleviated colitis symptoms” and the “effect on Anti-CD40-induced colitis” value ([4]; 15, 45, or 100 mg/kg PO BID, result in words) was “significant protective effect”. The “Colon density” value ([4]; 15mpk PO BID) was 46.99 ± 2.71 mg/cm, the “Colon length (cm)” value ([4]; 15mpk PO BID) was 5.61±0.20 cm and the “Colon weight” value ([4]; 15mpk PO BID) was 260.20 ± 10.58 mg. The “Colon density” value ([4]; 45mpk PO BID) was 37.00 ± 1.36 mg/cm, the “Colon length (cm)” value ([4]; 45mpk PO BID) was 6.34±0.13 cm and the “Colon weight” value ([4]; 45mpk PO BID) was 234.20 ± 9.04 mg. The “Colon density” value ([4]; 100mpk PO BID) was 29.23 ± 0.91 mg/cm, the “Colon length (cm)” value ([4]; 100mpk PO BID) was 7.15±0.15 cm and the “Colon weight” value ([4]; 100mpk PO BID) was 208.40 ± 5.53 mg. For the same molecule, the body weight loss ([4]; FIG. 1. A, result in words) was “reduction” and the DAI score ([4]; FIG. 1. B, result in words) was “reduction”.
